Assays:
C. albicans = experiment: Full skin model infected with spores, treatment, histology (PAS-staining); type: cell-based, Candida albicans; settings: over 72 h, sertaconazol 800, ciclopiroxolamin 400, terbinafin 1600 µg/mL, Fig. 7
Source text: (§1) For an application in vivo, there is the additional requirement for the antimycotic substances to evoke a targeted antimycotic activity in the presence of human cells. Thus, 3D-cell-cultures such as full skin models are used to simulate the in vivo conditions. Such full skin models are for example described in Reddersen K, Wiegand C, Elsner P, Hipler UC. Three-dimensional human skin model infected with Staphylococcus aureus as a tool for evaluation of bioactivity and biocompatibility of antiseptics. Int J Antimicrob Agents. 2019; 54(3):283-291; Wiegand C, Fink S, Beier O, Horn K, Pfuch A, Schimanski A, Grünler B, Hipler UC, Elsner P. Dose- and Time-Dependent Cellular Effects of Cold Atmospheric Pressure Plasma Evaluated in 3D Skin Models. Skin Pharmacol Physiol. 2016;29(5):257-265. Particularly, such full skin models are made of a collagen matrix, which is colonized with primary human fibroblasts, and a fully differentiated epidermis made of primary human keratinocytes. For the experiments, the model is infected in vitro with spores, such that a determination of the sporistatic or sporicidal influence of the substances to be examined at in vivo relevant conditions is allowed. Compared to a 2D-model, the 3D full skin model has the advantage that the cells are in their natural three-dimensional surrounding and show a corresponding behaviour. Such, the antimycotic and sporistatic or sporicidal effects can be examined in situ and in the presence of human cells.
(§2) The spore suspensions and the solutions of sertaconazol, ciclopiroxolamin and terbinafin were prepared as in Example 1, wherein the respective test concentrations were obtained by diluting these solutions in ultrapure water (WFI; Fresenius Kabi) instead of SGB (Merck). Full skin models were produced as previously described [Reddersen K, Wiegand C, Elsner P, Hipler UC. […] 2019; 54(3):283-291; Wiegand C, Fink S, Beier O, Horn K, Pfuch A, Schimanski A, Grünler B, Hipler UC, Elsner P. Dose- and Time-Dependent Cellular Effects of Cold Atmospheric Pressure Plasma Evaluated in 3D Skin Models. […]

E. floccosum = experiment: Full skin model infected with spores, treatment, histology; type: cell-based, Epidermophyton floccosum; settings: 48 h and 72 h, sertaconazol 0.010, ciclopiroxolamin 400, terbinafin 0.200 µg/mL
Source text: as §1, §2

Row | Structure (SMILES) | outgrowth of C. albicans (C. albicans) | outgrowth of E. floccosum (E. floccosum)
1 | Cc1cc(C2CCCCC2)n(O)c(=O)c1 [Ciclopiroxolamin, ciclopiroxolamin] | much lower effect | only reduced
2 | Clc1ccc(C(Cn2ccnc2)OCc2csc3c(Cl)cccc23)c(Cl)c1 (stereo not drawn) [Sertaconazol, sertaconazol] | clearly reduced | inhibited
3 | CN(C/C=C/C#CC(C)(C)C)Cc1cccc2ccccc12 [Terbinafin, terbinafin] | much lower effect | only reduced

Reference: patent EP4129284B1, “SERTACONAZOL FOR PROVIDING A SPORISTATIC AND/OR SPORICIDAL EFFECT” (Dr. Pfleger Arzneimittel GmbH, priority 2021, dated 2023)
